Data as given in patent publication US12076331B2, “Inositol derivatives for use in pathological crystallization” (ETH Zurich, priority 2015, dated 2024).

Assays:
[1] = In-solution screening of CaP precipitation and aggregation in artificial renal tubular fluid (RTF); type: physicochemical; details: 9 mM phosphate, 8 mM calcium, 4 h
Description: (§1) Effects of (A) OEG2-IP5, (B) OEG11-IP5, (C) (OEG2)2-IP4, (D) (OEG11)2-IP4 and (E) OEG8-(IP5)2. on CaP precipitation in RTF spiked with 9 mM disodium phosphate and 8 mM calcium chloride were assessed by light microscopy followed by automated image analysis at t=4 h. Quantification of the total area covered with CaP precipitates/total area field of view (N=3, mean+SD, normalized to the control).
as §1, with “mean size of aggregates/field” for “total area covered with CaP precipitates/total area field”, “view normalized to the ctrl” for “view”
Overview table showing the minimal concentration of compound (FIG. 3 for the chemical structures) required to achieve complete inhibition of CaP precipitation (total area covered with crystals <10% of total area control); and minimal concentration required to prevent CaP crystal aggregation in the CaP screening assay (CaP aggregate size <50% of aggregate size control) (N=3).
An artificial renal tubular fluid (RTF) with a final composition of 0.05 mM oxalate, 0.005 mM sulphate, 408 mM sodium, 424 mM chloride, 0.26 mM potassium, 4 mM magnesium and 0.2 mM citrate in double distilled water was prepared according to a literature report (Fasano, J. M. et al., Kidney Int. 59, 169-178. DOI: 10.1046/j. 1523-1755.2001.00477.x, 2001). The solution was filtered with a 0.45-μm syringe filter. Twenty mM Bis-Tris buffer was added to the reported protocol to ensure pH stability throughout experiments and pH was set to 7.2. The artificial RTF was stored at room temperature for up to four months. Stock solutions of 0.25 M phosphate and 1 M calcium were prepared in double distilled water and were stored separately at −20° C.
Twenty-x final concentration phosphate, 20× final concentration calcium and 10× final concentration compound dilutions were prepared in RTF. Assay mixture consisting of 80% RTF, 10% compound dilution, 5% phosphate dilution and 5% calcium dilution was prepared in Eppendorf tubes as follows. RTF (320 μL) was mixed with 20 μL phosphate dilution (final concentration of 9 mM), 40 μL compound dilution and 20 μL calcium dilution (final concentration of 8 mM). The assay mixture was vortexed after adding each component and 380 μL of the mixture were immediately added to 8-well glass bottom slides and incubated for 4 hat RT. CaP precipitation was assessed using a Leica DM 6000B microscope (Leica Microsystems, Wetzlar, Germany) in brightfield mode. For quantification 3 wells/condition with 3-4 images/well were imaged with a 40× objective. The total area covered with CaP deposits in percentage of the field of view and the mean size of CaP aggregates were determined.
In a first step, the influence of selected IP6 analogues (FIG. 5) on CaP precipitation and growth was assessed in vitro using artificial renal tubular fluid (RTF) (Table 1). In a previous study, the inventors investigated CaP protein particle formation in serum. However, an important difference to cardiovascular calcification lies in the extremely low protein content of the renal tubular fluid vs. the high abundance of proteins in blood, which can stabilize amorphous particles. Two cut-offs were chosen for assessing efficacy. First, complete inhibition was defined as a >90% reduction of detected CaP precipitates compared to the control sample without compound. Second, inhibition of CaP aggregation was defined as a >50% reduction of the mean size of aggregates when compared to the control.

[2] = system: RPTEC/TERT 1 human proximal tubule cells; assay: RNA sequencing of Ca/P treated RPTEC; type: cell-based; details: 50 μM, 5/7 mM Ca/P, 24 h
Text: A) Heatmap and hierarchical clustering of relative gene expression levels determined by RNA sequencing. […] Weighted set coverage of gene ontology terms and their respective enrichment score for differentially expressed genes in the Ca/P vs. medium control group is plotted (all FDR≤0.05). D) Normalized count of gene transcripts (FPKM—fragments per kilobase of exon model per million reads mapped) involved in inflammatory responses, ECM composition, cell proliferation and tissue homeostasis of the different treatment groups is plotted (mean+SD, N=3).
Cells were cultured as described in the imaging assay and treated with a medium control (ProxUp basal medium containing 1/1 mM Ca/P), 5/7 mM Ca/P, 5/7 mM Ca/P in medium containing 50 µM (OEG2)2-IP4 or 50 µM (OEG2)2-IP4 in medium for 24 h. Total RNA was extracted using the RNeasy kit (Quiagen) according to the manufacturer's instructions. Three wells per sample group were prepared and total RNA extracted of those 3 wells pooled. mRNA was purified and RNAseq library was prepared using the TrueSeq RNA kit (Illumina). […] Reads were aligned to the human reference genome GRCh38.p10 using the STAR tool (https://github.com/alexdobin/STAR) and transcripts quantified using the Kallisto program (42). […] For comparison of expression levels of the selected genes, the fragments per kilobase of exon model per million reads mapped (FPKM) were used. […]

[3] = previous study, Kletzmayr et al. 2020; cited from earlier work

In the case of `COCCOCCO[C@@H]1C(OP(=O)(O)O)[C@H](OCCOCCOC)[C@@H](OP(=O)(O)O)C(OP(=O)(O)O)[C@H]1OP(=O)(O)O` (stereo partly drawn) [(OEG2)2-IP4], the “effect on CaP precipitation/crystallization in words” value [1] is given as “did not further increase the inhibitory activity”, the “Ca/P-induced change in gene expression profile” value [2] is given as “prevented” and the “efficacy on CaOx crystallization in solution” value [3] is given as “limited efficacy”.
